Source: patent US7605154B2, “Substituted Thiazolo [4,5-d]pyrimidines as protein kinase inhibitors” (Janssen Pharmaceutica N.V., priority 2005, dated 2009)
Values joined by “and” are separate entries in the source; they are usually repeats but may differ in a detail not shown here. Identical values can stand only once.

Assays:
SK-OV-3 = SK-OV-3 Cell Migration Inhibition; assay type: cell-based; settings: several values in a cell are repeat determinations
EGFR = target: T1, EGFR (Homo sapiens, UniProt P00533); assay: EGFR Kinase Assay; assay type: biochemical; settings: for IC50: GST-EGFR, 5 μM ATP
T1 construct: started at nucleotide 2189 (corresponding to amino acid 667) and ended at the termination codon; made in house; host or cells: Sf9 insect cells (baculovirus)
Excerpt: The portion was PCR amplified with primers that added the lambda attB sequences to each end, recombined into an entry vector, then into a, GST destination vector (as described in Gateway Technologies Manual by Invitrogen Corporation, Carlsbad, Calif.).
The destination vector was recombined in the DH10BAC strain of bacteria to produce a bacmid. The bacmid was transfected into Sf 9 cells and the supernatant containing the baculovirus was collected. The GSTEGFR protein was purified using large cultures of Sf 9 cells infected with stock virus. After an appropriate period of time, the cells were collected and lysed. The GSTEGFR was then purified from the lysate on Glutathione-Sepharose columns (as described by Amersham Biosciences, Buckinghamshire, United Kingdom).
The free biotin was separated from the biotinylated polyGluTyr on a gel filtration column.
A mixture of a 10× kinase buffer (500 mM Tris at pH 8.0, 100 mM Magnesium Chloride and 1 mM Sodium Vanadate), DTT (1 mM final from 500 mM stock), ATP (5 μM final from 10 mM stock), biotinylated polyGluTyr (10 μg/μL stock), γ-^33P ATP (10 μCi/μL stock) and water was added to each well (90 μL/well) of a Streptavidin Flashplate (Perkin Elmer, Wellesley, Mass.).
Test compound in 100% DMSO (2 μL) was added to the appropriate wells. Diluted GSTEGFR (1:300 dilution in 50 mM Tris at pH 8.0 and 0.1% bovine serum albumin) (10 μL) was added to the wells to initiate the reactions.
The plates were incubated at 30° C. for 1 hr with shaking. The reacted contents were removed and the plates were sequentially washed three times with a 1×PBS stop buffer (300 μL without Magnesium and Calcium) and 100 mM EDTA. After the final wash, the same stop buffer (200 μL) was added to the wells. The plates were then sealed and read on the TopCount scintillation counter.
Test compounds were assayed in triplicate at 16 concentrations at half-log dilutions starting at 200 uM. A maximum and minimum signal for the assay was determined on each plate. The percent inhibition of a test compound was calculated according to the formula
For a series of test concentrations, the IC50 was derived by graphing percent inhibition against the log of the concentrations tested for a given compound.

c-Src kinase = target: T2, c-Src kinase (Homo sapiens, UniProt P12931); assay: c-Src Kinase Assay; assay type: biochemical; settings: test concentration of 1 μM
T2 construct: purchased Upstate Biotechnology, Lake Placid, N.Y
Procedure: A mixure of a 10× kinase buffer (80 mM MOPS at pH 7.0, 2 mM EDTA and 100 mM Magnesium Chloride), ATP (5 μM final from a 10 mM stock), a Cdc2 peptide […] (100 μM final from a 2.5 mM stock), γ-^33P ATP (10 μCi/μL stock) and water (20 μL/well) was added to each well of a Streptavidin Flashplate.
Test compound in 100% DMSO (0.5 μL) was added to the appropriate wells. Diluted c-Src kinase (human) (Upstate Biotechnology, Lake Placid, N.Y.) (diluted in a buffer consisting of 20 mM MOPS at pH 7.0, 1 mM EDTA, β-mercaptoethanol (0.1%), Brij-35 (0.01%), glycerol (5%), and 1 mg/mL bovine serum albumin) (2.5 μL) was added to the wells to initiate the reactions. The reaction plates were incubated at 30° C. for 40 min. The reaction was terminated by the addition of a 3% phosphoric acid solution (5 μL). The reaction product (10 μL) was spotted onto a P30 filtermat and washed for 5 minutes in phosphoric acid (75 mM). The wash sequence was repeated two more times, followed with one final wash in methanol. The plates were then dried, sealed and read on the TopCount scintillation counter after adding 30 μL scintillation fluid.
Percent inhibition was derived according to the procedure described in Example 5. The results for those compounds tested are shown in Table 2 at a test concentration of 1 μM.

[1] = Homo sapiens, SK-OV-3, SK-OV-3 migration

T1 sequence (P00533 667-1210 limits assumed): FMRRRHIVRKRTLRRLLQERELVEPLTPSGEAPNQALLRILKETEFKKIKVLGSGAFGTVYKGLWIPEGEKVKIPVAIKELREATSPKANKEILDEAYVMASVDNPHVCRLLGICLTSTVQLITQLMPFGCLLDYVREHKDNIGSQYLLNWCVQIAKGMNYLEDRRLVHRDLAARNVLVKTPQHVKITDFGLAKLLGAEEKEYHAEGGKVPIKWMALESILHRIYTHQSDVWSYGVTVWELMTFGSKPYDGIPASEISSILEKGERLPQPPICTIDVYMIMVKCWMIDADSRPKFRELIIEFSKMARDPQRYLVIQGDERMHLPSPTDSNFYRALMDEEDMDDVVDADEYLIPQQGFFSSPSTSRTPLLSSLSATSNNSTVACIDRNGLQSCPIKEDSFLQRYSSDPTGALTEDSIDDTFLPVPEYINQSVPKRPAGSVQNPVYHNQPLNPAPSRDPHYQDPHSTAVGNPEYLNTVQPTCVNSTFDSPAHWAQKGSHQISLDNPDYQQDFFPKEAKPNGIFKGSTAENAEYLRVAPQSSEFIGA
T2 sequence (P12931 whole entry): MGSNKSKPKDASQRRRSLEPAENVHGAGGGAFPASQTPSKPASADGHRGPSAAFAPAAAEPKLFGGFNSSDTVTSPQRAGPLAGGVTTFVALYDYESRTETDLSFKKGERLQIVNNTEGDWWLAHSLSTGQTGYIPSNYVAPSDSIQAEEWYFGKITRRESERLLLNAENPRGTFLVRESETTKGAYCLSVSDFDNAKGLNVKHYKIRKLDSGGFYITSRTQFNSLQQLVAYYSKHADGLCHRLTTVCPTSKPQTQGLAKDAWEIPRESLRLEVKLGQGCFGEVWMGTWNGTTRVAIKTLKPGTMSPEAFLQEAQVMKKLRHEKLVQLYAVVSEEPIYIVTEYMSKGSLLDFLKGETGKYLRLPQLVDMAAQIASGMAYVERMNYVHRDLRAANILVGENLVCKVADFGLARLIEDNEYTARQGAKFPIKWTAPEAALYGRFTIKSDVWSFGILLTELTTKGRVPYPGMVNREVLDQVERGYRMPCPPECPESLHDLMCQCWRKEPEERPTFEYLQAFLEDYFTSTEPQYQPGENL

Compound	IC50 (EGFR) [µM]	other results
Fc1ccc(Nc2ncnc3nc(Nc4ccc(CCN5CCOCC5)cc4)sc23)cc1Cl [Cpd 4, N^7-(3-chloro-4-fluoro-phenyl)-N^2-[4-(2-morpholin-4-yl-ethyl)-phenyl]-thiazolo[4,5-d]pyrimidine-2,7-diamine]	0.0217	IC50 (SK-OV-3; [1]): 0.735 µM; IC50 (SK-OV-3; SK-OV-3 migration): 0.52 µM
CN(C)CCCNS(=O)(=O)c1ccc(Nc2nc3ncnc(Nc4ccc(F)c(Cl)c4)c3s2)cc1 [Cpd 31, 4-[7-(3-chloro-4-fluoro-phenylamino)-thiazolo[4,5-d]pyrimidin-2-ylamino]-N-(3-dimethylamino-propyl)-benzenesulfonamide]	0.0103	IC50 (SK-OV-3; [1]): 0.138 µM; IC50 (SK-OV-3; SK-OV-3 migration): 0.18 µM and 0.191 µM
COCCN(CCOC)S(=O)(=O)c1ccc(Nc2nc3ncnc(Nc4ccc(F)c(Cl)c4)c3s2)cc1 [Cpd 32, 4-[7-(3-chloro-4-fluoro-phenylamino)-thiazolo[4,5-d]pyrimidin-2-ylamino]-N,N-bis-(2-methoxy-ethyl)-benzenesulfonamide]	0.0208	IC50 (SK-OV-3; [1]): > 5 µM
C#Cc1cccc(Nc2ncnc3nc(Nc4ccc(S(=O)(=O)N(CCOC)CCOC)cc4)sc23)c1 [Cpd 33, 4-[7-(3-ethynyl-phenylamino)-thiazolo[4,5-d]pyrimidin-2-ylamino]-N,N-bis-(2-methoxy-ethyl)-benzenesulfonamide]	0.0253	IC50 (SK-OV-3; [1]): 0.252 µM
COCCN(CCOC)Cc1ccc(Nc2nc3ncnc(Nc4ccc(F)c(Cl)c4)c3s2)cc1 [Cpd 34, N^2-(4-{[bis-(2-methoxy-ethyl)-amino]-methyl}-phenyl)-N^7-(3-chloro-4-fluoro-phenyl)-thiazolo[4,5-d]pyrimidine-2,7-diamine]	0.0064	IC50 (SK-OV-3; [1]): 0.21 µM
C#Cc1cccc(Nc2ncnc3nc(Nc4ccc(CN5CCOCC5)cc4)sc23)c1 [Cpd 35, N^7-(3-ethynyl-phenyl)-N^2-(4-morpholin-4-ylmethyl-phenyl)-thiazolo[4,5-d]pyrimidine-2,7-diamine]	0.03	IC50 (SK-OV-3; [1]): 0.474 µM; IC50 (SK-OV-3; SK-OV-3 migration): 0.38 µM
C#Cc1cccc(Nc2ncnc3nc(Nc4ccc(NCCCN5CCOCC5)nc4)sc23)c1 [Cpd 72, N^7-(3-ethynyl-phenyl)-N^2-[6-(3-morpholin-4-yl-propylamino)-pyridin-3-yl]-thiazolo[4,5-d]pyrimidine-2,7-diamine]	0.0282	
NS(=O)(=O)c1ccc(Nc2nc3ncnc(Nc4ccc(F)c(Cl)c4)c3s2)cc1 [Cpd 73, 4-[7-(3-chloro-4-fluoro-phenylamino)-thiazolo[4,5-d]pyrimidin-2-ylamino]-benzenesulfonamnide]		inhibition at 1 µM (c-Src kinase): 65%
NS(=O)(=O)c1ccc(Nc2nc3ncnc(Nc4cccc(Cl)c4)c3s2)cc1 [Cpd 74, 4-[7-(3-chloro-phenylamino)-thiazolo[4,5-d]pyrimidin-2-ylamno]-benzenesulfonamide]	0.0066	
NS(=O)(=O)c1ccc(Nc2nc3ncnc(Nc4c(F)cccc4F)c3s2)cc1 [Cpd 75, 4-[7-(2,6-difluoro-phenylamino)-thiazolo[4,5-d]pyrimidin-2-ylamino]-benzenesulfonamide]	0.187	
NS(=O)(=O)c1ccc(Nc2nc3ncnc(Nc4ccc(Cl)cc4F)c3s2)cc1 [Cpd 76, 4-[7-(4-chloro-2-fluoro-phenylamino)-thiazolo[4,5-d]pyrimidin-2-ylamino]-benzenesulfonamide]	0.0402	
NS(=O)(=O)c1ccc(Nc2nc3ncnc(Nc4ccc(Br)cc4F)c3s2)cc1 [Cpd 77, 4-[7-(4-bromo-2-fluoro-phenylamino)-thiazolo[4,5-d]pyrimidin-2-ylamino]-benzenesulfonamide]	0.087	
NS(=O)(=O)c1ccc(Nc2nc3ncnc(Nc4cccc(Br)c4)c3s2)cc1 [Cpd 78, 4-[7-(3-bromo-phenylamino)-thiazolo[4,5-d]pyrimidin-2-ylamino]-benzenesulfonamide]	0.0105	
Cc1cccc(Nc2ncnc3nc(Nc4ccc(S(N)(=O)=O)cc4)sc23)c1 [Cpd 79, 4-[7-(3-methyl-phenylamino)-thiazolo[4,5-d]pyrimidin-2-ylamino]-benzenesulfonamide]	0.0143	
NS(=O)(=O)c1ccc(Nc2nc3ncnc(Nc4ccccc4)c3s2)cc1 [Cpd 80, 4-[7-(phenylamino)-thiazolo[4,5-d]pyrimidin-2-ylamino]-benzenesulfonamide]	0.0825	
NS(=O)(=O)c1ccc(Nc2nc3ncnc(Nc4cc(Cl)cc(Cl)c4)c3s2)cc1 [Cpd 81, 4-[7-(3,5-dichloro-phenylamino)-thiazolo[4,5-d]pyrimidin-2-ylamino]-benzenesulfonamide]	0.116	
NS(=O)(=O)c1ccc(Nc2nc3ncnc(Nc4ccc(Br)c(Cl)c4)c3s2)cc1 [Cpd 82, 4-[7-(4-bromo-3-chloro-phenylamino)-thiazolo[4,5-d]pyrimidin-2-ylamino]-benzenesulfonamide]	0.005	
NS(=O)(=O)c1ccc(Nc2nc3ncnc(Nc4ccc(N5CCOCC5)c(Cl)c4)c3s2)cc1 [Cpd 83, 4-[7-(3-chloro-4-(morpholin-4-yl)-phenylamino)-thiazolo[4,5-d]pyrimidin-2-ylamino]-benzenesulfonamide]	3.8	
NS(=O)(=O)c1ccc(Nc2nc3ncnc(Nc4cccc(CN5CCOCC5)c4)c3s2)cc1 [Cpd 84, 4-[7-(3-(morpholin-4-yl)methyl-phenylamino)-thiazolo[4,5-d]pyrimidin-2-ylamino]-benzenesulfonamide]	3.3	
NS(=O)(=O)c1ccc(Nc2nc3ncnc(Nc4ccc(CCN5CCOCC5)cc4)c3s2)cc1 [Cpd 85, 4-[7-(4-(morpholin-4-yl)ethyl-phenylamino)-thiazolo[4,5-d]pyrimidin-2-ylamino]-benzenesulfonamide]	10.1	
NS(=O)(=O)c1ccc(Nc2nc3ncnc(Nc4ccc(N5CCOCC5)cc4)c3s2)cc1 [Cpd 86, 4-[7-(4-(morpholin-4-yl)-phenylamino)-thiazolo[4,5-d]pyrimidin-2-ylamino]-benzenesulfonamide]	17.9	
COc1ccc(Nc2ncnc3nc(Nc4ccc(S(N)(=O)=O)cc4)sc23)cc1CN1CCOCC1 [Cpd 87, 4-[7-(4-methoxy-3-(morpholin-4-yl)methyl-phenylamino)-thiazolo[4,5-d]pyrimidin-2-ylamino]-benzenesulfonamide]		inhibition at 2 µM (EGFR; test concentration of 2 μM, compounds without an IC50, read-out: EGFR percent inhibition): 13%
Fc1ccc(Nc2ncnc3nc(Nc4ccccc4)sc23)cc1Cl [Cpd 88, N^7-(3-chloro-4-fluoro-phenyl)-N^2-phenyl-thiazolo[4,5-d]pyrimidine-2,7-diamine]	0.0593	
Clc1cccc(Nc2ncnc3nc(Nc4ccccc4)sc23)c1 [Cpd 89, N^7-(3-chloro-phenyl)-N^2-phenyl-thiazolo[4,5-d]pyrirnidine-2,7-diamine]	0.0271	
Brc1cccc(Nc2ncnc3nc(Nc4ccccc4)sc23)c1 [Cpd 90, N^7-(3-bromo-phenyl)-N^2-phenyl-thiazolo[4,5-d]pyrimidine-2,7-diamine]	0.0165	
Clc1cc(Cl)cc(Nc2ncnc3nc(Nc4ccccc4)sc23)c1 [Cpd 91, N^7-(3,5-dichloro-phenyl)-N^2-phenyl-thiazolo[4,5-d]pyrimidine-2,7-diamine]	0.733	
N#Cc1ccc(Nc2nc3ncnc(Nc4ccc(F)c(Cl)c4)c3s2)cc1 [Cpd 92, 4-[7-(3-chloro-4-fluoro-phenylamino)-thiazolo[4,5-d]pyrimidin-2-ylamino]-benzonitrile]	0.0154	
N#Cc1ccc(Nc2nc3ncnc(Nc4cccc(Cl)c4)c3s2)cc1 [Cpd 93, 4-[7-(3-chloro-phenylamino)-thiazolo[4,5-d]pyrimidin-2-ylamino]-benzonitrile]	0.0255	
